Experimental findings from paper PMC10688702, “The indole motif is essential for the antitrypanosomal activity of N^5-substituted paullones” (PLOS ONE, 2023) are described below.

The structures appear in SMILES notation.

Type in all cases: cell-based
For data set [1], the system named is bloodstream form of T. b. brucei strain 427. In words: Viability assay for T. b. brucei (whole parasite, bioluminescence). The following applies: 24 h; for T. b. brucei (BS) proliferation [% at 10 μM]: 10 μM compound; for EC50: Trypanosoma brucei, read-out: T. b. brucei (BS) [EC50. Here is the method: Viability assay for T. b. brucei. The bloodstream form of the monomorphic T. b. brucei strain 427, cell line 5141313, constitutively and stably expressing an ectopic copy of the Photinus pyralis red-shifted luciferase, was cultured in vitro with HMI-9 medium, supplemented with 10% fetal bovine serum, 10 U/mL penicillin (Gibco), 10 μg/mL streptomycin (Gibco), 0.2 μg/mL bleomycin (Jena Bioscience), 4 μg/mL G418 disulfate salt (Sigma-Aldrich) and 0.2 μg/mL puromycin (Invitrogen), inside a humidified incubator (Thermo Fisher Scientific) with controlled temperature (37°C) and CO2 (5%) in a 25 or 75 cm^2 vented-cap culture-flask. The anti-trypanosomal activity of compounds was evaluated in a 96-well culture plate containing 2.2 μL/well DMSO (negative control) or compounds dissolved in DMSO (1% final concentration), and 220 μL/well of a suspension of 1 × 10^5 parasites/mL. The plates were incubated at 37°C and 5% CO2 for 24 h. Next, each well was transferred to a 96-well black plate, and 20 μL of a solution containing d-luciferin (1.5 mg/mL in PBS glucose 1% w/v) and Triton X-100 (0.05% v/v) was added. Bioluminescence signal was measured in a LUMIstar OPTIMA Microplate luminometer using the following settings: 10 s shaking, 5 s/well acquisition, 0.2 s measurement delay, maximum gain, and 37°C. For the bioluminescence assay, parasite viability was calculated according to the following formula: parasiteviability%=BLcpd-BLblank/BLneg-BLblank*100%
BL refers to the mean of bioluminescence signal corresponding to the tested compound (cpd), the blank (blank, complete media containing 1% v/v DMSO), or the negative control (neg, parasites treated with 1% v/v DMSO). EC50 values were determined from concentration-response curves fitted to a four-parameter sigmoid equation using the GraphPad Prism software (version 6.0). All errors are expressed as one SD, estimated as σ^n-1. For a detailed explanation of the protocol, see Dibello et al..

The test system of data set [2] is L. infantum amastigotes (intracellular, in J774.A1 macrophages). In words: Viability assay for L. infantum amastigotes. The following applies: Leishmania infantum, J774.A1, 24 h, read-out: L. infantum amastigote viability [% at 20 μM]. The essentials: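 Luciferase-expressing L. infantum metacyclic promastigotes (MHOM/MA/67/ITMAP263) infected J774.A1 murine macrophages at 1:10 for 24 h at 37 °C, 5% CO2. After compound treatment, a further 24 h incubation followed. Percent amastigote viability, in triplicate, was normalised to host-cell density by a propidium iodide correction factor.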

The subject of data set [3] is murine macrophages J774.A1. Put plainly: Cytotoxicity assays on murine macrophages (WST-1). The following applies: error 1 SD. How it is done: Cytotoxicity assays on murine macrophages. Murine macrophages from the cell line J774.A1 (ATCC® TIB-67TM) were cultivated under a humidified 5% CO2/95% air atmosphere at 37°C in Dulbecco’s modified Eagle’s medium (DMEM) supplemented with 10% (v/v) FBS, 10 U/mL penicillin and 10 μg/mL streptomycin. The experimental protocol for the determination of EC50 values was identical as described by Demoro et al. 2012 [71], with the following change: 200 μL/well of a cell suspension at 6 × 10^4 cells per mL was added in a 96-well culture plate and washed with 150 μL of DMEM. The cytotoxicity of the compounds was evaluated in triplicate using the WST-1 reagent (Roche). The control treatment included cells cultured in the presence of DMSO 1% (v/v). Absorbance at 450 nm (Ai 450 nm), corresponding to the formazan dye produced by metabolically active cells, was measured with an EL 800-microplate reader. The corrected absorbance values at 450 nm (Ai c 450 nm) were obtained by subtracting the corresponding absorbance value at 630 nm (Ai 630 nm) and the blank average (Ablank 450 nm): Aic450nm=Ai450nm-Ai630nm-Ablank450nm
Cell viability (%), with the number of viable cells proportional to the absorbance, was calculated as follows: cellviability%=Aic450nm/Anegativecontrolc450nm*100%
Ai c 450 nm refers to an absorbance obtained from cells treated with compound I at a specific concentration (i) and Anegative control c 450 nm refers to an absorbance obtained from cells in the DMSO-treated control (negative control). The errors were calculated using error propagations and are expressed as one SD, estimated as σ^n−1.
Background: Formazan colour is commonly taken as a measure of viable cells.

For orientation: EC50 means the concentration giving half of the maximal effect. As usually defined, the viability is the share of living cells, or the viability signal relative to a control. For `CNCCNC(=O)CN1C(=O)Cc2c([nH]c3ccc(C(F)(F)F)cc23)-c2ccc(Cl)cc21` [1h, 2-(3-Chloro-6-oxo-9-trifluoromethyl-7,12-dihydrobenzo[2,3]azepino[4,5-b]indol-5(6H)-yl)-N-[2-(methylamino)ethyl]acetamide], in data set [1], the “T. b. brucei (BS) proliferation [% at 10 μM]” value (“T. b. brucei … [% at 10 μM]” for short) was determined as 0.9 ± 1.3% and the EC50 came out at 6.6 ± 1.1 µM. Also, the viability at 20 µM in data set [2] turned out to be 93 ± 10%. Besides, in data set [3] (% cell death at 60 μM), the “Macrophage toxicity [% at stated conc.]” value is recorded as 102.8 ± 0.4%.

As to `CNCCNC(=O)CN1C(=O)Cc2c([nH]c3ccc(Cl)cc23)-c2ccc(Cl)cc21` [1g, 2-(3,9-Dichloro-6-oxo-7,12-dihydrobenzo[2,3]azepino[4,5-b]indol-5(6H)-yl)-N-[2-(methylamino)ethyl]acetamide], in data set [1], the “T. b. brucei … [% at 10 μM]” value was found to be 0.0 ± 0.3% and the EC50 stood at 4.7 ± 1.1 µM. Moreover, in data set [2], the viability at 20 µM turned out to be 70 ± 2%. The “Macrophage toxicity [% at stated conc.]” value in data set [3] (% cell death at 50 μM) was 101.9 ± 3.6%.

`CNCCNC(=O)CN1C(=O)Cc2c([nH]c3ccc(I)cc23)-c2ccc(Cl)cc21` [1f, 2-(3-Chloro-9-iodo-6-oxo-7,12-dihydrobenzo[2,3]azepino[4,5-b]indol-5(6H)-yl)-N-[2-(methylamino)ethyl]acetamide]: in data set [1], the “T. b. brucei … [% at 10 μM]” value worked out at 0.0 ± 1.7% and the 50% effective concentration (EC50) is 6.4 ± 1.7 µM. In data set [2], the viability at 20 µM stood at 72 ± 5%. The “Macrophage toxicity [% at stated conc.]” value in data set [3] (% cell death at 60 μM) worked out at 105.8 ± 0.2%.
